Measurements reported in US6232340A, “Vanadium complexes and derivatives thereof and methods related thereto” (priority 1998, dated 2001).
Entries after “also recorded” stand apart in the source; their conditions may differ.

Key:
stromelysin = test: Northern blot, synovial stromelysin expression in CIA rats; assay type: in vivo; conditions: vs control group
Source text: (§1) Collagenase, stromelysin, and IL-1 mRNA were readily detected in the vehicle control group. When normalized for RNA loading, expression of all three genes was decreased in the animals in the BMOV-treated group compared to the control group.

IL-1 = test: Northern blot, synovial IL-1 expression in CIA rats; assay type: in vivo; conditions: vs control group
Source text: as §1

collagenase = test: Northern blot, synovial collagenase expression in CIA rats; assay type: in vivo; conditions: vs control group
Source text: as §1

[1] = system: Collagen Induced Arthritis; test: Treatment of collagen induced arthritis (CIA) with BMOV and NAC; assay type: in vivo, rats
Method: CIA in rats is a model of chronic inflammatory synovitis with pannus formation, neovascularization, and joint destruction similar to rheumatoid arthritis (RA). After immunization with native collagen type II (CII) in incomplete Freund's adjuvant, 90-100% of genetically susceptible rats reliably develop clinical arthritis within 10 to 14 days.
Arthritis is induced in syngeneic 8 week old female Louvain (LOU) rats by intradermal immunization under ether anaesthesia on Day 0 with 0.5 mg native chick collagen II (CII) (Genzyme, Boston, Mass.) solubilized in 0.1M acetic acid and emulsified in incomplete Freund's adjuvant (IFA) (Difco, Detr, Mich.) (D. E. Trentham et al., J. Exp. Med. 146:857-868, 1977). Onset of clinical arthritis typically develops in 90-100% of control rats 10-12 days post CII immunization.
On day 10 post immunization, arthritis-induced rats are randomized into two groups. Control rats (n=10) receive only an aqueous vehicle at a dose of 100 mg/kg/day s.c. The experimental group (n=10) receives an aqueous vehicle at 100 mg/kg/day s.c., as well as O[BEOV]2 subcutaneously at the appropriate dose.
The severity of clinical arthritis in each limb is scored daily based on an objective integer scale of 0-4 (D. E. Trentham et al., J. Exp. Med. 146:857-868, 1977). A score of 0 indicates an unaffected limb, while a score of 4 represents fulminant erythema and edema involving distal digits. The arthritic index is defined as the sum of its four limb scores. Since CIA typically involves only the hind limbs, an arthritic index of 6 to 8 is considered to represent severe arthritis.
At the end of the study (Day 18-post arthritis onset), hind limb radiographs are obtained. An investigator blinded to the treatment protocol assigns a score to each limb, based on the degree of soft tissue swelling, joint space narrowing, periosteal new bone information, and the presence of erosions and ankylosis (0=normal; 3=maximal joint destruction). The radiographic index is defined as the sum of the limbs.
The humoral immunity is evaluated by collecting rat serum on Day 18 post arthritis onset for measuring anti-CII IgG by an enzyme linked immunosorbent assay (ELISA) (E. Brahn and D. E. Trentham, Cell Immunol. 86:421-428, 1984; E. Brahn and D. E. Trentham, Cell Immunol. 118:491-503, 1989). Antibody titers are normalized against a previously standardised curve and absorbance read at 490 nm at a serum dilution of 1:2500.
Synovium is selected from rats on Day 5 and Day 18-post arthritis onset to study joint morphology using electron microscopy. On Day 18-post arthritis onset, one ankle joint of each arthritic control and O[BEOV]2 -treated rat is removed, critical point dried, and gold sputter-coated for scanning electron microscopy to examine the trochlear surfaces. Conventional transmission electron microscopy is also performed on the articular cartilage of the trochlear surfaces of native, arthritic control, and O[BEOV]2 -treated animals.

[2] = system: H460 human non-small cell lung cancer
Method: The purpose was to establish safe efficacious levels of s.c., b.i.d. administration of OHBEOV for 9 days. The protocol used is as follows. 20 female Scid/Rag-2 mice were randomly divided into 4 groups. Groups were treated as follows. H460 tumor cells were inoculated (50 μl 10^6 cells bilaterally in the posterior dorsal region) as discussed earlier. On day 11 following tumor inoculation, the 9 day treatment began. Vehicle (isotonic phosphate buffer) filtered through 0.22 μm sterile filter (Costar 14066).
Mice were weighed as a group prior to injection in the morning. Injections were s.c. in the neck region distal to the tumor sight and were delivered b.i.d. between 8-9 a.m. and between 4-5 p.m. Tumor volumes were estimated on a daily basis from measurements taken with calipers.

[3] = Plasma glucose levels following acute and b.i.d. dosing (insulin mimetic effect); assay type: in vivo
MDAY-D2 tumors = test: Tumor efficacy on MDAY-D2 tumors in DBA-2 mice (Example 36); assay type: in vivo, murine tumor cells in DBA-2 mice
Method: The protocol used is as follows. 10 DBA-2 mice were randomly divided into 2 groups. Groups were treated as follows. […] Vehicle (isotonic phosphate buffer) was filtered through 0.22 μm sterile filter (Costar 140666).
(§2) The groups were as follows:
(§3) 1) Vehicle control: isotonic phosphate buffer. 300 μl/dose, total of 600 μl/day.
(§4) Treatment continued for a total of nine days. Mice were terminated on day 10 with carbon dioxide. Tumors were removed and weighed following blotting.

[4] = isotonic phosphate buffered saline
[5] = Maximum Tolerated Dose study, i.v. b.i.d. for nine days in DBA-2 mice (Example 34); assay type: in vivo, female mice (DBA-2)
Method: A Maximum Tolerated Dose (M.T.D.) study was undertaken to determine a safe tolerable dose for administration of OHBEOV through an intravenous route of administration delivered twice daily for nine days in female mice (DBA-2). The protocol was as follows. 8 DBA-2 female mice were randomly divided into groups of 2 for a total of 4 groups. Groups were treated as follows. Vehicle (sterile isotonic phosphate buffer, pH 7.2) was filtered through 0.22 μm sterile filter (Costar 140666).
(§5) 1) Vehicle control: 300 μl/dose for a total of 600 μl/day.
Mice were weighed as a group (N=2) prior to injection in the morning. […] Treatment continued for a total of nine days. Groups were observed and weighed daily for 2 weeks following the final treatment and observed for behavioral signs of toxicity, i.e., reduced preening, and mobility and organ failure, i.e., weight loss, death. Following this period, mice were terminated with carbon dioxide. Liver, spleen and kidney (and other organs) weighed and kept for histology if appearance appeared abnormal.

[6] = Maximum Tolerated Dose study, s.c. b.i.d. for nine days in DBA-2 mice (Example 33); assay type: in vivo, female mice (DBA-2)
Method: A Maximum Tolerated Dose (M.T.D.) study was undertaken to determine a safe tolerable dose for administration of OHBEOV through a parenteral (s.c.) route of administration delivered twice daily (b.i.d.) for nine days in female mice (DBA-2). The protocol was as follows. 14 DBA-2 mice were randomly divided into groups of 2 for a total of 7 groups. Groups were treated as follows. Vehicle (sterile isotonic phosphate buffer, pH 7.2) was filtered through 0.22 pm sterile filter (Costar 140666). OHBEOV was dissolved with gentle heating and stirring for about 20 min.
as §5
7) 300 μl of 2 mg/mL OHBEOV to be injected for a total of 1200 μg/day.
Mice were weighed as a group (N=2) prior to injection in the morning. […] Treatment continued for a total of nine days. Groups were observed and weighed daily for 2 weeks following the final treatment and observed for behavioral signs of toxicity i.e. reduced preening, and mobility and organ failure, i.e., weight loss, death. Following this period, mice were terminated with carbon dioxide. Liver, spleen and kidney (and other organs) were weighed and kept for histology if appearance appeared abnormal.

[7] = system: H460 (human non-small cell lung cancer); test: Efficacy on H460 human non-small cell lung cancer xenograft in SCID-RAG-2 mice (Example 37); assay type: in vivo, human tumor cells in SCID-RAG-2 female mice; conditions: for tumor size reduction (caliper volumes) / reduction of tumor weight relative to control: 500 μg/dose s.c. b.i.d., 9 days; for tumor size reduction (caliper volumes): vs control; for reduction of tumor weight relative to control: day 10
Method: A study was undertaken to confirm the efficacy of OHBEOV and O[BEOV]2 using SCID-RAG-2 female mice with implanted human H460 tumors (lung cancer). […] The protocol used was as follows. 15 SKID-RAG-2 mice were randomly divided into 3 groups. Groups were treated as follows. […] Vehicle (isotonic phosphate buffer) was filtered through 0.22 pm sterile filter (Costar 140666).
as §2, §3, §4

proliferating cells = conditions: previous studies; cited from earlier work
non-proliferating cells = conditions: previous studies; cited from earlier work
[8] = system: drug resistant cell lines; conditions: previous studies; cited from earlier work
synoviocytes = conditions: previously shown; cited from earlier work
[9] = xenograft model of human lung cancer

## Cc1occc(=O)c1[O-].Cc1occc(=O)c1[O-].[O]=[V+2] [BMOV, Bis(maltolato)oxovanadium(IV)]
stromelysin; normalized for RNA loading
  inhibition of stromelysin gene expression: 58%
stromelysin
  synovial expression of stromelysin: reduced
IL-1; printed "IL-In", normalized for RNA loading
  inhibition of IL-1 gene expression: 85%
IL-1
  synovial expression of IL-1: to a lesser degree, IL-1, were reduced
collagenase; normalized for RNA loading
  inhibition of collagenase gene expression: 78%
collagenase
  synovial expression of collagenase: reduced
[1]; 10 mg/kg/day
  diarrhoea: not observed
[1]; 15 mg/kg/day on Day 11 post arthritis onset
  diarrhoea: minor diarrhoea
[1]; joints vs control
  cartilage damage (scanning and transmission electron micrographs): little cartilage damage and intact cartilage
[1]; vs control rats
  trochlear surface of articular cartilage: normal trochlear surface
[1]; vs native animal
  articular cartilage ultrastructure (transmission electron micrographs): indistinguishable from the native animal

## CC(=O)N[C@@H](CS)C(=O)O [NAC]
[1]; NAC alone
  arthritis severity: developed severe arthritis; also recorded: no appreciable effect on the clinical severity of CIA

## CCc1occc(=O)c1[O][V](=[O])([OH])[O]c1c(CC)occc1=O [OHBEOV, Bis(2-ethyl-3-hydroxy-4-pyronato)hydroxyoxovanadium(V)]
[2]; 600-1000 μg/day s.c., day 10
  dose-response of mean tumor weight: dose-response relationship
[2]; atomic absorption spectroscopy, end of study
  correlation of tumor vanadium with tumor size and dose: strongly correlated
[2]; in vivo
  myelosuppression: no evidence of myelosuppression
  plasma leukocyte count / immune response: no significant changes in plasma leukocyte count
[2]; [9]
  anti-tumor activity: significant dose-dependent anti-tumor activity
  final tumor size reduction: approximately 70%
[3]; acute and b.i.d. dosing
  plasma glucose levels following dosing: decreased following dosing
[3]; following dosing, non-diabetic animals
  plasma glucose level (normoglycemic range): 4 mM
[3]; single and multiple b.i.d. dosing
  time for plasma glucose to return to pre-dosing levels: ≤ 1 h
MDAY-D2 tumors; 500 μg/dose s.c. b.i.d., 9 days, vs control
  tumor size reduction (caliper volumes): significant reduction in tumor size
MDAY-D2 tumors; 500 μg/dose s.c. b.i.d., 9 days, day 10
  reduction of tumor weight relative to control: approximately 70%
MDAY-D2 tumors; murine solid tumor model at maximum tolerated dose, s.c. b.i.d. 9 days
  tumor efficacy: significant tumor efficacy was demonstrated
[4]
  maximum solubility: 6000 µg/mL
[5]; doses up to and including 300 μg (600 μg/day) i.v., 9 day treatment and 14 day follow up
  weight loss: less than 15%
[5]; i.v.
  weight recovery following termination of treatment: all animals regained their original weight
[5]; per dose, i.v. b.i.d., 9 days, well tolerated
  tolerability (doses up to and including): 300 µg
[6]; 600 μg/dose s.c., visual inspection
  spleen appearance upon necropsy: enlarged
[6]; b.i.d., s.c. for 9 days
  maximum tolerated dose: 500 µg/day
[6]; doses up to and including 500 μg (1000 μg/day) s.c., 9 day treatment and 14 day follow up
  weight loss: less than 15%
[6]; maximum dose of 600 μg s.c.
  weight loss of one animal terminated: 25%
[6]; per dose, s.c. b.i.d., 9 days, well tolerated
  tolerability (doses up to and including): 500 µg
[6]; s.c.
  weight recovery following termination of treatment: all animals regained their original weight
[6]; s.c., higher doses
  skin lesions at the injection site: some skin lesions were noted
[6]; treatment protocol and dose level used to demonstrate tumor efficacy
  weight loss: less than 15%
[7]
  tumor size reduction (caliper volumes): significant reduction in tumor size
  reduction of tumor weight relative to control: approximately 70%
[7]; human lung cancer xenograft at maximum tolerated dose, s.c. b.i.d. 9 days
  tumor efficacy: significant tumor efficacy was demonstrated

## [O]=[V]([O-])([O-])[O-] [orthovanadate]
Proliferating cells
  effect on proliferating cells: toxic to proliferating cells
non-proliferating cells
  effect on non-proliferating cells: did not affect the non-proliferating cells
[8]
  toxicity to drug resistant cell lines: equally toxic to all the drug resistant cell lines
synoviocytes
  cytotoxicity to synoviocytes: cytotoxic to the cells
  synoviocyte proliferation: inhibited synoviocyte proliferation

## O=S(=O)([O-])[O-].[O]=[V+2] [vanadyl sulphate]
synoviocytes
  cytotoxicity to synoviocytes: cytotoxic to the cells
  synoviocyte proliferation: inhibited synoviocyte proliferation

## μ-Oxobis[bis(2-ethyl-3-hydroxy-4-pyronato)oxovanadium(V)] [O[BEOV]2]
[7]
  tumor size reduction (caliper volumes): significant reduction in tumor size
  reduction of tumor weight relative to control: approximately 70%
